{"source": "patent US20060212961A1", "about": "“Rice transposon gene” (priority 2003, published 2006)", "key": {"indica rice (93-11)": {"tested_on": "indica rice (93-11)", "experiment": "Azacytidine treatment of indica rice (93-11), release of nDart", "assay_type": "in vivo", "conditions": "93-11 treated with azacytidine; no release under usual growth conditions", "method": "Furthermore, indica rice (93-11) was treated with azacytidine and confirmed release of nDart."}, "pyl-stb seeds": {"tested_on": "pyl-stb seeds", "experiment": "Azacytidine treatment of pyl-stb seeds, appearance of mutable (pyl-v) individuals", "assay_type": "in vivo, rice", "conditions": "for Germination rate (%) / Mutable individual (%) / Individual with mutable or abnormal phenotype / Mutable individual / Normal individual: seeds macerated 24 hrs at 30° C.; for Individual with mutable or abnormal phenotype / Mutable individual / Normal individual: number of individuals", "method": "pyl-stb seeds were macerated in 0.15, 0.3 or 0.45 mM azacytidine aqueous solution for 24 hrs at 30° C., washed them, left for germination and examined the expression of pyl-v."}}}
{"smiles": "Nc1ncn([C@@H]2O[C@H](CO)[C@@H](O)[C@H]2O)c(=O)n1", "note": "[azaC, 5-azacytidine]", "values": [{"measurement": "Release of nDart", "setting": "indica rice (93-11)", "result": "release was confirmed"}, {"measurement": "Frequency of the transposition of nDart", "setting": "pyl-stb seeds; 0.15, 0.3 or 0.45 mM azacytidine aqueous solution, 24 hrs at 30° C.", "result": "increased as the concentration of azacytidine increased"}, {"measurement": "Germination rate (%)", "setting": "pyl-stb seeds; azaC 0.15 mM", "result": 99, "unit": "%"}, {"measurement": "Mutable individual (%)", "setting": "pyl-stb seeds; azaC 0.15 mM", "result": 60.6, "unit": "%"}, {"measurement": "Individual with mutable or abnormal phenotype", "setting": "pyl-stb seeds; azaC 0.15 mM", "result": 17}, {"measurement": "Mutable individual", "setting": "pyl-stb seeds; azaC 0.15 mM", "result": 43}, {"measurement": "Normal individual", "setting": "pyl-stb seeds; azaC 0.15 mM", "result": 39}, {"measurement": "Germination rate (%)", "setting": "pyl-stb seeds; azaC 0.3 mM", "result": 92, "unit": "%"}, {"measurement": "Mutable individual (%)", "setting": "pyl-stb seeds; azaC 0.3 mM", "result": 69.6, "unit": "%"}, {"measurement": "Individual with mutable or abnormal phenotype", "setting": "pyl-stb seeds; azaC 0.3 mM", "result": 27}, {"measurement": "Mutable individual", "setting": "pyl-stb seeds; azaC 0.3 mM", "result": 37}, {"measurement": "Normal individual", "setting": "pyl-stb seeds; azaC 0.3 mM", "result": 28}, {"measurement": "Germination rate (%)", "setting": "pyl-stb seeds; azaC 0.45 mM", "result": 95, "unit": "%"}, {"measurement": "Mutable individual (%)", "setting": "pyl-stb seeds; azaC 0.45 mM", "result": 73.7, "unit": "%"}, {"measurement": "Individual with mutable or abnormal phenotype", "setting": "pyl-stb seeds; azaC 0.45 mM", "result": 36}, {"measurement": "Mutable individual", "setting": "pyl-stb seeds; azaC 0.45 mM", "result": 34}, {"measurement": "Normal individual", "setting": "pyl-stb seeds; azaC 0.45 mM", "result": 25}, {"measurement": "Change of pyl-stb to a pyl-v mutant", "setting": "pyl-stb seeds; azacytidine treatment of pyl-stb seeds", "result": "able to be changed to a pyl-v mutant"}]}
